Publication PMC8041304, “Halogen Atoms in the Protein–Ligand System. Structural and Thermodynamic Studies of the Binding of Bromobenzotriazoles by the Catalytic Subunit of Human Protein Kinase CK2” (The Journal of Physical Chemistry. B, 2021)
Values joined by “and” are separate entries in the source; they are usually repeats but may differ in a detail not shown here. Equal values may be shown once.

Columns and labels:
[1] = Density measurements: partial molar volume and thermal expansivity of the solute; assay type: physicochemical; settings: 50 mM phosphate buffer pH 11; for α2^0, thermal volumetric expansivity of the solute: 20, 25, 30 °C; for V2^0, partial molar volume: 25 °C
Method: Partial molar volumes were estimated with a density meter Anton Paar DMA 5000 M at 20, 25, and 30 °C from the concentration–density dependency for compounds dissolved in 50 mM phosphate buffer (pH 11). The experimental procedure and the data analysis method were described previously.[36],[57],[58] The partial molar volume at 25 °C (V2^0) and thermal volumetric expansivity of the solute (α2^0 = ∂V2^0/∂T) were estimated globally from two independent dilution series. The density of pure solvent (d0) was extrapolated individually for each experimental condition (i.e., temperature and buffer preparation). The change of d0 with temperature was further used to determine thermal volumetric expansivity coefficient of the bulk buffer according to the formula α0 = −(∂d0/∂T)/d0.
According to the Lum, Chandler, and Weeks (LCW) theory, the hydrophobic interactions scale for solutes of subnanometer size with the volume of the molecule rather than its surface.[61] We have recently proposed partial molar volume as the extensive parameter to describe both the solute volume and the solute-induced reorganization of the solvation shell.[36],[57],[58],[62],[63] By analyzing density data at three temperatures (20, 25, and 30 °C), we could estimate the partial molar volume of the ligand (V2^0) and the bulk solvent density (d0(T)). We could further separate the thermal expansivity coefficient of the bulk solvent (α0) and the apparent expansivity of the solute (α2^0). The latter parameter is comprised mainly of the thermal expansion effect of the hydration shell. The values of α0 fell within the narrow range of (26.9 ± 1.3) × 10^–5 K^–1, which is close to the literature data for water (25.72 × 10^–5 K^–1 at 25 °C).[64] […] The solute thermal expansivity (α2^0), together with the change of isobaric heat capacity upon ligand binding (ΔCp,bind), has already been associated with the properties of the solvation layer.[65],[66] Importantly, α2^0 is proportional to the partial molar volume V2^0 (Figure 3D). So, V2^0 may be another descriptor of hydrophobic interactions. Consequently, the volume-normalized solute expansivity coefficient (α = α2^0/V2^0) is almost the same for all studied bromobenzotriazoles (232 ± 22 × 10^–5 K^–1). Importantly, this value substantially exceeds the thermal expansivity coefficient of the bulk buffer (α0 = 26.9 ± 1.3 × 10^–5 K^–1), clearly confirming that water organization changes with temperature more near the solute surface than in the bulk.

[2] = set-up: method as in doi:10.1016/j.molliq.2019.111527; settings: calculated water–octanol partition coefficient; cited from earlier work
[3] = set-up: method as in PMID 32162783; settings: HPLC-derived hydrophobicity; cited from earlier work
hCK2α [4] = target: T1, hCK2α (Homo sapiens, UniProt P68400); assay: Fluorescence-monitored thermal denaturation (nanoDSF) of hCK2α complexes; assay type: binding; settings: protein 2.5 μM, ligand 25 μM; for Tm (°C) at pH 7.5: hCK2α in complex with ligand; for ΔTm (°C) at pH 7.5: unfolding temperature with ligand minus without
T1 construct: made in house
Method: The samples were loaded into nanoDSF grade Standard Capillaries (NanoTemper Technologies) and analyzed using the Prometheus NT.48 nanoDSF device (NanoTemper Technologies). Thermal unfolding of the protein was monitored using a linear thermal ramp (1 °C·min^–1; 20–80 °C) with an excitation power of 30%.
This prompted us to measure the thermal stabilities of hCK2α and its complexes at pH 7.5 by fluorescence-monitored thermal denaturation (nanoDSF) (Table 2).

hCK2α [5] = target: T1, hCK2α; assay: Isothermal titration calorimetry (MicroCal iTC200), reverse titration; assay type: binding; settings: for ΔGbind, free energy of binding: ITC; for ΔSrt, entropic term for loss of ligand rotational and translational degrees of freedom: calculated from ligand molecular mass; for Ts, temperature at which the entropy change upon ligand binding is zero: estimated from the linear fit of ΔS(T); for ΔSHE(Ts), hydrophobic-effect contribution to the entropy change upon binding: ≈ 1.35∙ΔCp,bind∙ln(Ts/386)
Method: ITC measurements were carried out using the MicroCal iTC200 (Malvern) calorimeter. The hCK2α samples were diluted to the required protein concentration with the 25 mM Tris-HCl pH 8 buffer containing 0.5 M NaCl. Stock ligand solutions were diluted with the appropriate DMSO volume prior to mixing with the buffer to obtain the required ligand concentration and a final DMSO content of 1%. Due to the limited solubility of halogenated benzotriazoles, all titration experiments were performed in the reverse mode, in which buffered ligand solution was placed in the calorimetric cell and titrated with the protein solution.[35]
(§1) In all experiments the maximum ligand concentration of 10 μM was used to minimize a possible contribution of the secondary binding site.

hCK2α [6] = target: T1, hCK2α; assay: Isothermal titration calorimetry (NanoITC); assay type: binding; settings: pH 8
Method: as §1

hCK2α [7] = target: T1, hCK2α; set-up: method as in PMID 25891901; settings: cited from earlier work
hCK2α [8] = target: T1, hCK2α; set-up: method as in PMID 23155426; settings: pH 7.5; cited from earlier work
[9] = iTC200, 15 °C, pH 8, independent experiments separately evaluated
[10] = iTC200, 20 °C, pH 8, independent experiments separately evaluated
[11] = iTC200, 25 °C, pH 8, independent experiments separately evaluated
[12] = iTC200, 30 °C, pH 8, independent experiments separately evaluated
[13] = iTC200, 35 °C, pH 8, independent experiments separately evaluated

T1 sequence (P68400 whole entry): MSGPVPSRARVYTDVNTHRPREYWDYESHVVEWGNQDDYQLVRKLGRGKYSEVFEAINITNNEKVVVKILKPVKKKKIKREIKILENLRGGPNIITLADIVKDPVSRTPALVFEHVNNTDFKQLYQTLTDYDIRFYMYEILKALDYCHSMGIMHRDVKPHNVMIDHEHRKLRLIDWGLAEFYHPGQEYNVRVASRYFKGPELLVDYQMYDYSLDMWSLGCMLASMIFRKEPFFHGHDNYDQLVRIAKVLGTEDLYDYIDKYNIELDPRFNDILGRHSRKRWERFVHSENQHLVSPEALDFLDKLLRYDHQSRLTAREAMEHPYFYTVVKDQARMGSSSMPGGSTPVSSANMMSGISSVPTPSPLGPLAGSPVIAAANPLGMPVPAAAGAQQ

SMILES | α2^0, thermal volumetric expansivity of the solute [1] [cm^3·mol^–1·K^–1] | V2^0, partial molar volume [1] [cm^3·mol^–1] | log P [2] | log(τ) [3] | Tm (°C) at pH 7.5 (hCK2α [4]) [°C] | ΔTm (°C) at pH 7.5 (hCK2α [4]) [°C] | ΔGbind, free energy of binding (hCK2α [5]; 25 °C, pH 8) | ΔSrt, entropic term for loss of ligand rotational and translational degrees of freedom (hCK2α [5]) [J∙mol-1∙K-1] | Ts, temperature at which the entropy change upon ligand binding is zero (hCK2α [5]) [K] | Kd (hCK2α [5]; [9]) | Kd (hCK2α [5]; [10]) | Kd (hCK2α [5]; [11]) | Kd (hCK2α [5]; [12]) | Kd (hCK2α [5]; [13]) | ΔSHE(Ts), hydrophobic-effect contribution to the entropy change upon binding (hCK2α [5]) [J∙mol-1∙K-1] | ΔTm (°C) at pH 8 (hCK2α [7]) [°C] | IC50 (hCK2α [8]) [µM] | other results
Brc1c(Br)c(Br)c2[nH]nnc2c1Br [4,5,6,7-Br4Bt, 4,5,6,7-tetrabromobenzotriazole] | 0.72 ± 0.28 | 194.1 ± 1.1 | 3.58 | –0.00 |  |  |  |  |  |  |  |  |  |  |  |  |  | 
Brc1cc2[nH]nnc2c(Br)c1Br [4,5,6-Br3Bt] | 0.49 ± 0.24 | 156.0 ± 1.0 | 2.96 | –0.20 | 53.84 ± 0.04 | 8.7 ± 0.1 | –39.5 ± 0.4 kJ·mol^–1 | -301 | 280 ± 36 | 89 nM and 51 nM | 114 nM and 130 nM | 123 nM and 116 nM | 189 nM and 109 nM | 160 nM and 215 nM | 295 ± 30 | 8.4 ± 0.1 | 0.38 ± 0.02 | Kd (hCK2α [6]; 15 °C): 65 ± 13 nM; ΔG (hCK2α [6]; 15 °C): -9.49 ± 0.12 kcal/mol; ΔH (hCK2α [6]; 15 °C): -6.93 ± 0.14 kcal/mol; ΔS (hCK2α [6]; 15 °C): 37 ± 4 J·mol-1·K-1; Kd (hCK2α [6]; 20 °C): 81 ± 19 nM; ΔG (hCK2α [6]; 20 °C): -9.51 ± 0.14 kcal/mol; ΔH (hCK2α [6]; 20 °C): -7.43 ± 0.22 kcal/mol; ΔS (hCK2α [6]; 20 °C): 30 ± 5 J·mol-1·K-1; Kd (hCK2α [6]; 25 °C): 42 ± 17 nM; ΔG (hCK2α [6]; 25 °C): -10.1 ± 0.239 kcal/mol; ΔH (hCK2α [6]; 25 °C): -9.46 ± 0.311 kcal/mol; ΔS (hCK2α [6]; 25 °C): 9 ± 4 J·mol-1·K-1; Kd (hCK2α [6]; 30 °C): 96 ± 17 nM; ΔG (hCK2α [6]; 30 °C): -9.73 ± 0.12 kcal/mol; ΔH (hCK2α [6]; 30 °C): -11.2 ± 0.287 kcal/mol; ΔS (hCK2α [6]; 30 °C): -21 ± 6 J·mol-1·K-1; Kd (hCK2α [6]; 35 °C): 217 ± 94 nM; ΔG (hCK2α [6]; 35 °C): -9.39 ± 0.263 kcal/mol; ΔH (hCK2α [6]; 35 °C): -13.5 ± 1.46 kcal/mol; ΔS (hCK2α [6]; 35 °C): -56 ± 23 J·mol-1·K-1
Brc1cc(Br)c2[nH]nnc2c1Br [4,5,7-Br3Bt] | 0.55 ± 0.23 | 174.7 ± 0.9 | 2.98 | –0.22 | 49.81 ± 0.07 | 4.6 ± 0.1 | –34.5 ± 0.4 kJ·mol^–1 | -301 | 316 ± 33 | 670 nM and 760 nM | 710 nM and 1200 nM | 900 nM and 910 nM | 1360 nM and 760 nM | 1230 nM and 870 nM | 184 ± 16 | 5.2 ± 0.1 | 5.8 ± 0.9 | ΔS (hCK2α [5]; [9]): 69 ± 8 J·mol-1·K-1 and 56 ± 8 J·mol-1·K-1; ΔS (hCK2α [5]; [10]): 53 ± 6 J·mol-1·K-1 and 47 ± 11 J·mol-1·K-1; ΔG (hCK2α [5]; [11]): -8.25 ± 0.12 kcal/mol and -8.25 ± 0.19 kcal/mol; ΔS (hCK2α [5]; [11]): 34 ± 5 J·mol-1·K-1 and 38 ± 9 J·mol-1·K-1; ΔS (hCK2α [5]; [12]): 24 ± 8 J·mol-1·K-1 and 34 ± 6 J·mol-1·K-1; ΔS (hCK2α [5]; [13]): 15 ± 6 J·mol-1·K-1 and 8 ± 6 J·mol-1·K-1; ΔSother, entropy change assigned to all other processes accompanying ligand binding (hCK2α [5]; ΔSrt + ΔSHE(Ts) + ΔSother = 0): 118 ± 16 J∙mol-1∙K-1
